Results from EP1377579B1 (Aventis Pharmaceuticals Inc., priority 2000, dated 2002).
Counter-ions that a name gives are not always drawn.

Experiments:
cdk4/cyclin D1 = cdk4/cyclin D1 (Homo sapiens, UniProt P11802); assay: Cyclin-dependent kinase assay, cdk4/cyclin D1; assay type: biochemical; conditions: cyclin D1/cdk4; GST-pRb substrate, 10 µM ATP
Colo-205 = assay: In vitro proliferation assay (MTT), Colo-205; assay type: cell-based; conditions: Homo sapiens, COLO 205; MTT assay; value (SD, n) where given; read-out: Colo-205 Colon (IC50 µM)
Summary of the method: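 After 3 days of compound exposure, MTT was added to Colo-205 cultures for 2–4 h at 37 °C. Formazan was dissolved in DMSO and absorbance read at 570 nm. Cells had been plated at 1000–2500/well and left to recover overnight; IC50 values came from the raw readings.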

Jurkat = assay: In vitro proliferation assay (MTT), Jurkat; assay type: cell-based; conditions: Homo sapiens, MTT assay, value (SD, n) where given, read-out: Jurkat Leuk. (IC50 µM)
Experimental: (§1) The proliferation of tumor cells can be measured using a tetrazolium salt-based assay known as the MTT (3-[4,5-Dimethylthiazol-2-yl]-2,5-diphenyltetrazolium bromide) assay. The proliferation test is performed essentially as described by Carmichael et al., Cancer Res. 47: 936-942, 1987. For the assay, the cell lines are plated onto 96 well plates at 1000 to 2500 cells/well (depending on the properties of the individual cell lines), left to attach and recover overnight. […] After 3 days, the cells are incubated with MTT dye (3-[4,5-Dimethylthiazol-2-yl]-2,5-diphenyltetrazolium bromide, Sigma # M5655, 10 mg/ml in Hank's Buffered Saline) to estimate the amount of live cells remaining vs. concentration for the test compounds. Specifically, MTT solution is added to a final concentration of […] and the plates incubated at 37 C for 2 to 4 hr. The MTT and culture medium is then removed from the cultures and 200 µl of DMSO is added to solubilize the dye from the cell layer. The absorbance at 570 nm is determined for each culture using a Spectramax plate reader (Molecular Devices).
(§2) IC50s were determined from the raw data from either the MTT or SRB assays.
(§3) All of the cell lines were obtained from American Type Tissue Collection, with the ATCC accession number in parentheticals. MCF-7 and MDA-MB-231 cells were grown in improved minimum essential medium (Biofluids) without phenol red, supplemented with 5 % fetal bovine serum, 0.01 mg/ml gentamicin and 3 mM L-glutamine. All of the other cell lines were grown in RPMI 1640 medium (Life Technologies) supplemented with 5 % fetal bovine serum, 0.01 mg/ml gentamicin and 3 mM L-glutamine TABLE 3

HL-60 = assay: In vitro proliferation assay (MTT), HL-60; assay type: cell-based; conditions: Homo sapiens, HL-60; MTT assay; value (SD, n) where given; read-out: HL-60 Leuk. (IC50 µM)
Experimental: as §1, §2, §3

cdk1/cyclin B = cdk1/cyclin B (Homo sapiens, UniProt P06493); assay: Cyclin-dependent kinase assay, cdk1/cyclin B; conditions: CDK1 IC50, nM, Histone H1, 10 µM ATP
Experimental: The IC50 values for cdk1/cyclin B, cdk2/cyclin E, and cdk4/cyclin D1 inhibition are determined using the following methods: • The cdk1 sequence (accession number Y00272) is amplified by PCR and cloned into the BamHI and SalI sites of pFASTBAC1 (Life Technologies).
The cyclin B1 sequence (accession number M25753) is amplified by PCR and cloned into the BamHI and SalI sites of pFASTBAC1 (Life Technologies).
The insect cell (Sf9) expression is optimized for each of the CDK/cyclin pairs according to the manufacturer's protocols (Life Technologies). For cdk4-HA/cyclin D1-His6 an infection of 0.1 multiplicity of infection (MOI) for 48 hours gives the best expression levels of the complex as well as activity.
The viruses are added to the cells and the culture is incubated at 27°C for the desired time. The cells are harvested by centrifugation at 3000 rpm for 10 minutes. The cells are snap frozen on dry ice and stored at - 80°C.
Cell extracts are made following a standard procedure. The cell pellet is resuspended in lysis buffer (50 mM HEPES, pH 8.0, 10 mM MgCl2, 1 mM DTT, 2.5 mM EGTA, 1 mM EDTA, 10 mM β-glycerophosphate, 1 mM sodium vanadate, 1 mM sodium fluoride, 1 x Protease inhibitor cocktail). The cells are lysed using the microfluidizer (Microfluidics) for 20 minutes. Cell debris is removed by centrifugation at 100,000 x g. The cell extracts are aliquoted in 1 ml aliquots, frozen on dry ice, and stored at -80°C.
The kinase reactions are performed following a standard procedure. The enzyme and inhibitor are diluted in kinase buffer (50 mM HEPES, pH 8.0, 10 mM MgCl2, 2.5 mM EGTA, 10 mM β-glycerophosphate, 1 mM sodium vanadate, 1 mM sodium fluoride, and 1 mM DTT) and pre-incubated for 30 minutes. […] The cdk1 enzyme activity is assayed using Histone H1 (Sigma) in the presence of 10 µM ATP for 30 min at room temperature. The reactions are terminated by the addition of 50 µL of 10 mM cold ATP to stop the reactions. The reactions are transferred to a pre-soaked 96-well multi-screen plate containing 30 µL of 100% TCA per well. After incubation for one hour at room temperature, the plates are washed twice with 200 µl of 20% TCA, followed by 200 µl of 10% TCA and finally with 200 µl of 5% TCA. After drying the plates at room temperature, the filter plates are placed in adapter plates (Packard) and 40 µl of Microscint-O® (Packard) is added to each well. Top Seal A film is used to cover the plates before counting in a Top Count Scintillation Counter.
The % remained activity of the indicated Cdk/cyclin kinase complex in the presence of inhibitor is calculated by the ratio of cpm in the presence of inhibitor to cpm in the absence of inhibitor (%Activity = vi/vo x 100%).

MDA-MB-435 = assay: In vitro proliferation assay (MTT), MDA-MB-435; assay type: cell-based, human; conditions: Homo sapiens, MDA-MB-435, MTT assay; value (SD, n) where given; read-out: MB-435 Breast (IC50 µM)
Summary of the method: (§4)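 A570 readout of DMSO-solubilized MTT formazan after 3-day compound exposure; IC50 from raw data. Cells plated 1000–2500/well and recovered overnight before dosing.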

PC-3 = assay: In vitro proliferation assay (MTT), PC-3; assay type: cell-based, human; conditions: Homo sapiens, PC-3, MTT assay; value (SD, n) where given; read-out: PC-3 Prostate (IC50 µM)
Summary of the method: as §4

NCI-H460 = assay: In vitro proliferation assay (MTT), NCI-H460; assay type: cell-based; conditions: Homo sapiens, NCI-H460; MTT assay; value (SD, n) where given; read-out: H-460 Lung (IC50 µM)
Summary of the method: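 A570 of DMSO-solubilized formazan was the read-out. Seeding: 1000–2500 cells/well, overnight recovery. Compound exposure: 3 days. MTT incubation: 2–4 hr, 37 C. IC50 calculated from raw absorbance.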

cdk2/cyclin E = cdk2/cyclin E (Homo sapiens, UniProt P24941); assay: Cyclin-dependent kinase assay, cdk2/cyclin E; conditions: CDK2 IC50, nM, GST-pRb substrate, 10 µM ATP

Sequence of cdk4/cyclin D1 (P11802 whole entry): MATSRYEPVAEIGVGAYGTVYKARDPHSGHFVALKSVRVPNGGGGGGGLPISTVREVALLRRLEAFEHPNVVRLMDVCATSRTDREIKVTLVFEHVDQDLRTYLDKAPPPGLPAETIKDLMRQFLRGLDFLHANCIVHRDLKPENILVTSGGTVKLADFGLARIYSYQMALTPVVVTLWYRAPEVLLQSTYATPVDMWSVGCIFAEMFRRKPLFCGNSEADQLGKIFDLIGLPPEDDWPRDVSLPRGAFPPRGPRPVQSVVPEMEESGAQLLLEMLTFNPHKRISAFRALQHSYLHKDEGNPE
Sequence of cdk4/cyclin D1 (P24385 whole entry partner): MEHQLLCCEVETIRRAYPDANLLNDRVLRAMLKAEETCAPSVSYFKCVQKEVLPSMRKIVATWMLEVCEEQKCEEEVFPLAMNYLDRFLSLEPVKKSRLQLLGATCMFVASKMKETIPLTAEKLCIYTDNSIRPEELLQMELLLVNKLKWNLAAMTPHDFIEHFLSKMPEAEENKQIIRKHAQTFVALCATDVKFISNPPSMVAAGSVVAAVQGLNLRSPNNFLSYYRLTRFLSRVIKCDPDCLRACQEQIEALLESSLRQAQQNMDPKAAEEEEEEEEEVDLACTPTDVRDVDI
Sequence of cdk1/cyclin B (P06493 whole entry): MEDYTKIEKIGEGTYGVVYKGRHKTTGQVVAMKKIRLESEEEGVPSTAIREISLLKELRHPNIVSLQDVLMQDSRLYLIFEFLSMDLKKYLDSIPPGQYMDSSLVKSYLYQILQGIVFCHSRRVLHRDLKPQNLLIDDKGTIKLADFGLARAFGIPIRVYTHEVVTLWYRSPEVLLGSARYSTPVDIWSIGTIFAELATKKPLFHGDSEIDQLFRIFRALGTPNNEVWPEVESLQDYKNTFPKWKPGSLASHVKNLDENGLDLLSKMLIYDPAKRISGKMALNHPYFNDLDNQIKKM
Sequence of cdk1/cyclin B (P14635 whole entry partner): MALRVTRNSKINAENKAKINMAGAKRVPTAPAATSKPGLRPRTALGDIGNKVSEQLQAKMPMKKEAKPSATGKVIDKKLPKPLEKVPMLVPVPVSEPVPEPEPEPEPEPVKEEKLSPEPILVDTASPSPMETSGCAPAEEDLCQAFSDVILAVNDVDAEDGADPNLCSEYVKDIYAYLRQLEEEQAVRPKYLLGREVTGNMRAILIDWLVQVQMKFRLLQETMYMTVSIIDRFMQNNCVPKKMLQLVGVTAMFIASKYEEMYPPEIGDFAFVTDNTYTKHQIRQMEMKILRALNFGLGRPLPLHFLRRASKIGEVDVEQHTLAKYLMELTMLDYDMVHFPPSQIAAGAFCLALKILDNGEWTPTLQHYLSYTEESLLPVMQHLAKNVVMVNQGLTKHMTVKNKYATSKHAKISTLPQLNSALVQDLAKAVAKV

Row | Compound | IC50 (cdk4/cyclin D1) | IC50 (Colo-205) | IC50 (Jurkat) | IC50 (HL-60) | IC50 (cdk1/cyclin B) | IC50 (MDA-MB-435) | IC50 (PC-3) | IC50 (NCI-H460) | IC50 (cdk2/cyclin E)
1 | N[C@H]1CC[C@H](Nc2nc(NC3CCN(C(=O)Nc4ccc(OC(F)(F)F)cc4)CC3)c3ncn(C4CCCC4)c3n2)CC1 [compound 175, trans-4-[2-(4-Amino-cyclohexylamino)-9-cyclopentyl-9H-purin-6-ylamino]-piperidine-1-carboxylic acid (4-trifluoromethoxy-phenyl)-amide dihydrochloride] | 0.682 µM | 0.05 µM | 0.16 µM | 0.04 µM | 12 nM | 0.12 µM | 0.2 µM | 0.23 µM | 114 nM
2 | N[C@H]1CC[C@H](Nc2nc(NC3CCN(C(=O)Nc4cc(C(F)(F)F)ccc4Cl)CC3)c3ncn(C4CCCC4)c3n2)CC1 [compound 177, trans-4-[2-(4-Amino-cyclohexylamino)-9-cyclopentyl-9H-purin-6-ylamino]-piperidine-1-carboxylic acid (2-chloro-5-trifluoromethyl-phenyl)-amide dihydrochloride] | 0.432 µM | 0.12 µM | 0.21 µM | 0.03 µM | 7 nM | 0.17 µM | 0.15 µM | 0.14 µM | 60 nM
3 | N[C@H]1CC[C@H](Nc2nc(NC3CCN(C(=O)Nc4ccc(Cl)cc4C(F)(F)F)CC3)c3ncn(C4CCCC4)c3n2)CC1 [compound 178, trans-4-[2-(4-Amino-cyclohexylamino)-9-cyclopentyl-9H-purin-6-ylamino]-piperidine-1-carboxylic acid (4-chloro-2-trifluoromethyl-phenyl)-amide dihydrochloride] | 0.879 µM | 0.09 µM | 0.28 µM | < 0.02 µM | 49 nM | 0.14 µM | 0.16 µM | 0.23 µM | 100 nM
4 | N[C@H]1CC[C@H](Nc2nc(NC3CCN(C(=O)Nc4ccc(Cl)c(C(F)(F)F)c4)CC3)c3ncn(C4CCCC4)c3n2)CC1 [compound 179, trans-4-[2-(4-Amino-cyclohexylamino)-9-cyclopentyl-9H-purin-6-ylamino]-piperidine-1-carboxylic acid (4-chloro-3-trifluoromethyl-phenyl)-amide dihydrochloride] | 0.497 µM | 0.18 µM | 0.5 µM | 0.07 µM | 8 nM | 0.24 µM | 0.37 µM | 0.5 µM | 261 nM
5 | N[C@H]1CC[C@H](Nc2nc(NC3CCN(C(=O)Nc4cc(F)ccc4F)CC3)c3ncn(C4CCCC4)c3n2)CC1 [compound 180, trans-4-[2-(4-Amino-cyclohexylamino)-9-cyclopentyl-9H-purin-6-ylamino]-piperidine-1-carboxylic acid (2,5-difluoro-phenyl)-amide dihydrochloride] | 0.431 µM | 0.04 µM | 0.2 µM | < 0.02 µM | 12 nM | 0.1 µM | 0.09 µM | 0.12 µM | 44 nM
6 | N[C@H]1CC[C@H](Nc2nc(NC3CCN(C(=O)Nc4cc(Cl)cc(Cl)c4)CC3)c3ncn(C4CCCC4)c3n2)CC1 [compound 182, trans-4-[2-(4-Amino-cyclohexylamino)-9-cyclopentyl-9H-purin-6-ylamino]-piperidine-1-carboxylic acid (3,5-dichloro-phenyl)-amide dihydrochloride] | 0.305 µM | < 0.02 µM | 0.17 µM | 0.02 µM | 32 nM | 0.15 µM | 0.1 µM | 0.12 µM | 174 nM
7 | Cc1ccc(NC(=O)N2CCC(Nc3nc(N[C@H]4CC[C@H](N)CC4)nc4c3ncn4C3CCCC3)CC2)cc1 [compound 183, trans-4-[2-(4-Amino-cyclohexylamino)-9-cyclopentyl-9H-purin-6-ylamino]-piperidine-1-carboxylic acid (4-methyl-phenyl)-amide dihydrochloride] | 0.338 µM | 0.05 µM | 0.19 µM | < 0.02 µM | 17 nM | 0.11 µM | 0.17 µM | 0.2 µM | 64 nM
8 | CSc1ccc(NC(=O)N2CCC(Nc3nc(N[C@H]4CC[C@H](N)CC4)nc4c3ncn4C3CCCC3)CC2)cc1 [compound 186, trans-4-[2-(4-Amino-cyclohexylamino)-9-cyclopentyl-9H-purin-6-ylamino]-piperidine-1-carboxylic acid (4-methylsulfanyl-phenyl)-amide dihydrochloride] | 0.465 µM | 0.03 µM | 0.21 µM | < 0.02 µM | 11 nM | 0.09 µM | 0.16 µM | 0.28 µM | 56 nM
9 | N[C@H]1CC[C@H](Nc2nc(NC3CCN(C(=O)Nc4ccccc4-c4ccccc4)CC3)c3ncn(C4CCCC4)c3n2)CC1 [compound 187, trans-4-[2-(4-Amino-cyclohexylamino)-9-cyclopentyl-9H-purin-6-ylamino]-piperidine-1-carboxylic acid biphenyl-2-yl-amide dihydrochloride] | 0.831 µM | 0.19 µM | 0.35 µM | < 0.02 µM | 280 nM | 0.21 µM | 0.19 µM | 0.25 µM | 61 nM
10 | CC(C)c1ccc(NC(=O)N2CCC(Nc3nc(N[C@H]4CC[C@H](N)CC4)nc4c3ncn4C3CCCC3)CC2)cc1 [compound 190, trans-4-[2-(4-Amino-cyclohexylamino)-9-cyclopentyl-9H-purin-6-ylamino]-piperidine-1-carboxylic acid (4-isopropyl-phenyl)-amide dihydrochloride] | 0.357 µM | 0.02 µM | 0.2 µM | < 0.02 µM | 23 nM | 0.09 µM | 0.2 µM | 0.36 µM | 40 nM
11 | CCOc1ccc(NC(=O)N2CCC(Nc3nc(N[C@H]4CC[C@H](N)CC4)nc4c3ncn4C3CCCC3)CC2)cc1 [compound 191, trans-4-[2-(4-Amino-cyclohexylamino)-9-cyclopentyl-9H-purin-6-ylamino]-piperidine-1-carboxylic acid (4-ethoxy-phenyl)-amide dihydrochloride] | 0.297 µM | 0.07 µM | 0.36 µM | < 0.02 µM | 23 nM | 0.25 µM | 0.24 µM | 0.41 µM | 36 nM
12 | COC(=O)c1ccccc1NC(=O)N1CCC(Nc2nc(N[C@H]3CC[C@H](N)CC3)nc3c2ncn3C2CCCC2)CC1 [compound 193, trans-2-[(1-{4-[2-(4-Amino-cyclohexylamino)-9-cyclopentyl-9H-purin-6-ylamino]-piperidin-1-yl}-methanoyl)-amino]-benzoic acid methyl ester dihydrochloride] | 0.507 µM | 0.18 µM | 0.26 µM | 0.03 µM | 26 nM | 0.17 µM | 0.18 µM | 0.13 µM | 8 nM
